This is an account of results in patent US20230372357A1, “STABLE PHARMACEUTICAL COMPOSITION” (SANTEN PHARMACEUTICAL CO., LTD., priority 2020, published 2023).

For data set [1] the following is noted: intracameral injection; cited from earlier work.
Data set [2] is described as follows: Finding at development stage: compound dissolved as aqueous composition. The class given is physicochemical.

With `CCN(CC)CC1CCCCN1CC(=O)N1c2ccccc2C(=O)Nc2cccnc21` (stereo not drawn) [AFDX0116, 11-[2-[2-[(diethylamino)methyl]-1-piperidinyl]acetyl]-5,11-dihydro-6H-pyrido[2,3-b][1,4]benzodiazepin-6-one], the intraocular pressure entry in data set [1] is “decreased”.

As to `CCN(CC)C[C@H]1CCCCN1CC(=O)N1c2ccccc2C(=O)Nc2cccnc21` [AFDX0250, (+)-11-[2-[2-[(diethylamino)methyl]-1-piperidinyl]acetyl]-5,11-dihydro-6H-pyrido[2,3-b][1,4]benzodiazepin-6-one], the “hydrolysis of the compound in an aqueous composition” value in data set [2] (dissolved and prepared in the form of an aqueous composition) is “susceptible to hydrolysis”. Also, in data set [2] (under the light irradiation), the “degradation of the compound under light irradiation” value was “easily degraded under the light irradiation”.
